# Experimental data reported in patent US20250381165A1, “Method of Use for Benzofuran Compounds” (Tampa Bay Research Institute, Inc., priority 2024, published 2025).
# How the values were obtained:
# HEK293T = experiment: CellTiter-Glo cell viability, HEK293T; assay type: cell-based; conditions: Homo sapiens, HEK-293T
# Method: BzFβ was then examined for its effect on the viability of several murine and human cell lines and primary murine splenocytes. The cytotoxicity of BzFβ was assessed using the CellTiter-Glo […] assay system according to manufacturer's instructions to determine BzFβ's effect on the viability of several murine and human cell lines and primary murine splenocytes.
# DC2.4 cell line (Dr. Kenneth Rock, University of Massachusetts), RAW 264.7 cell line (American Type Culture Collection (ATCC), Manassas, VA; TIB 71), and IMG cell line (Millipore™, Merck KGaA, Burlington, MA; cat. no. SC-C134) were each cultured in complete Dulbecco's Modified Eagle Medium (cDMEM) containing […] glucose (Gibco™, Thermo Fisher Scientific Inc., Waltham, MA; cat. no. 10566-016) and supplemented with GlutaMAX, 50 U/mL penicillin and 50 µg/mL streptomycin (Gibco™; cat. no. 15070-063) and 10% heat inactivated fetal bovine serum (FBS) (R&D Systems, Inc., Minneapolis, MN; cat. no. […]
# The cytotoxicity of BzFβ was assessed using the CellTiter-Glo cell […] viability assay system […] cat. no. […] CellTiter-Glo was added 1:1 in the media and the level of chemiluminescence was measured using luminescence at wavelengths of 200 nm to 700 nm through a photomultiplier on BioTek's Synergy HTX multimode microplate reader. […]
# [1] = tested on: MHC class I H-2Kb on DC2.4; experiment: Surface MHC class I H-2Kb on DC2.4 (AF6-88.5.5.3 flow cytometry); assay type: cell-based, murine; conditions: DC2.4, 25 μg/mL
# Method: By using an MHC class I H-2K^b specific antibody, a relative comparison of the surface MHC class I was measured before and after BzFβ treatment of DC2.4 and IMG cells. […] Cells were centrifuged and washed using cold FACS buffer (DPBS with 5% FBS, 2 mM EDTA, 0.1% sodium azide). Cells were blocked with Fc block (bioLegend™; cat. no. 101320) for 10 min to 15 min to inhibit non-specific binding, followed by staining with fluorophore-conjugated antibodies; one set of cells was stained with the PE-labeled MHC/SIINFEKL specific antibody (clone 25-D1.16, Invitrogen™, Thermo Fisher Scientific Inc., Waltham, MA; cat. no. 12-5743-82), and the other set was stained with the PE-labeled MHC class I H-2Kb specific antibody (AF6-88.5.5.3,Invitrogen™, Thermo Fisher Scientific Inc., Waltham, MA; cat. no. 12-5958-82) PE-labeled MHC class I H-2kb specific (clone AF6-88.5.5.3; Invitrogen™, Thermo Fisher Scientific Inc., Waltham, MA; cat. no. 12-5958-82), for 30 min at 4° C. After washing, the cells were subjected to flow cytometric analysis with the Attune NxT Flow Cytometer (Invitrogen). Cells were gated based on live single-cell populations and positives were assessed using isotype controls and fluor-minus-one analysis when needed. Data were analyzed using the Attune NxT software or FlowJo versions 10.7 and 10.8.
structure (smiles),measurement,setting,value
"O=C(O)/C=C/c1ccc2occc2c1 [BzFβ, (2E)-3-(1-benzofuran-5-yl)prop-2-enoic acid]",IC50,HEK293T,432 µM
same,overall surface expression (MFI) of MHC class I,[1]; 1-4 h,no significant effect
same,overall surface expression (MFI) of MHC class I,[1]; 24 h,significant increase
